Tests used:
[1] = biological target: T1, Acyl-CoA desaturase 1 (Rattus norvegicus, UniProt P07308); test: Inhibition of rat SCD1
T1 sequence (P07308 whole entry): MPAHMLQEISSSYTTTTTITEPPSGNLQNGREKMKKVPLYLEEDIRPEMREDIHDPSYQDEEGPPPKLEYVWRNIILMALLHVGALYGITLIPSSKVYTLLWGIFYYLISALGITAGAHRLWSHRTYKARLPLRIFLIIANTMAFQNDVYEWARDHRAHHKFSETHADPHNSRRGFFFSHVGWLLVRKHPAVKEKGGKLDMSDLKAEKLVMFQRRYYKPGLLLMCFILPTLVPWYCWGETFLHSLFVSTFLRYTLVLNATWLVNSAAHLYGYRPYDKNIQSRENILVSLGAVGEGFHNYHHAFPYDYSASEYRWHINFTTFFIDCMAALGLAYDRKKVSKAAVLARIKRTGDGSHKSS

[2] = biological target: T2, Stearoyl-CoA desaturase 5 (Homo sapiens, UniProt Q86SK9); test: Inhibition of human SCD5
T2 sequence (Q86SK9 whole entry): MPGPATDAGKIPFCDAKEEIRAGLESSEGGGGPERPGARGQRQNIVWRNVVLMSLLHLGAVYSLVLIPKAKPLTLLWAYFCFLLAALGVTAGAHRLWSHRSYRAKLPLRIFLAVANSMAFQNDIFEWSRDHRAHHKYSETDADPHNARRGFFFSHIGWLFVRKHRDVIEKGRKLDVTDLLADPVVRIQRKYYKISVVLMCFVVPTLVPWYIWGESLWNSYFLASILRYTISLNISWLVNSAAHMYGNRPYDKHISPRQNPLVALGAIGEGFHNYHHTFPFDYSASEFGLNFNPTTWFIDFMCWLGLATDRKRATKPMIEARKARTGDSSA

[3] = biological target: T3, Stearoyl-CoA desaturase (Homo sapiens, UniProt O00767); test: Inhibition of human SCD1
T3 sequence (O00767 whole entry): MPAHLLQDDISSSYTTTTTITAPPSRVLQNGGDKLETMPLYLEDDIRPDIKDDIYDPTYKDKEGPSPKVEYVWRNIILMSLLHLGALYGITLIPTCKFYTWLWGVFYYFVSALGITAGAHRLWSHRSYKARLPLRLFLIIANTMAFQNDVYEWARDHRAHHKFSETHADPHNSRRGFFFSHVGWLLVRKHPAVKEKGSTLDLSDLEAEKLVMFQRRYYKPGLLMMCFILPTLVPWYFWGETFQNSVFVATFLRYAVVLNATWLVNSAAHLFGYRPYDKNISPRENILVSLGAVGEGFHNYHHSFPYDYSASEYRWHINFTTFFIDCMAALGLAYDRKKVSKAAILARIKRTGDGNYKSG

[4] = biological target: Acyl-CoA (8-3)-desaturase (Homo sapiens, UniProt O60427); test: Inhibition of Delta(5) fatty acid desaturase in human HepG2 cells; type: cell-based
[5] = biological target: T4, Acyl-CoA (8-3)-desaturase (Rattus norvegicus, UniProt Q920R3); test: Inhibition of rat Delta(5) fatty acid desaturase by cell based assay
[6] = Terminal half life in C57BL/6 mouse at 10 mg/kg, po or 2 mg/kg, iv; type: ADME, organism-based, C57BL6; settings: in vivo, read-out: beta t1/2 (converted)
[7] = Drug level in high sucrose/fat free diet fed C57BL/6 mouse plasma at 30 mg/kg, po after 3 hrs post dose; type: ADME, organism-based, C57BL6; design: dose 30 mg/kg, route oral
[8] = Plasma clearance in C57BL/6 mouse at 10 mg/kg, po or 2 mg/kg, iv; type: ADME, organism-based, C57BL6
[9] = Oral bioavailability in C57BL/6 mouse at 10 mg/kg, po; type: ADME, organism-based, C57BL6; settings: in vivo
[10] = Volume of distribution at steady state in Beagle dog at 2 mg/kg, po or 0.5 mg/kg, iv; type: ADME, organism-based, Canis lupus familiaris; settings: in vivo, read-out: Vdss
[11] = Plasma clearance in Beagle dog at 2 mg/kg, po or 0.5 mg/kg, iv; type: ADME, organism-based, Canis lupus familiaris
[12] = Volume of distribution at steady state in C57BL/6 mouse at 10 mg/kg, po or 2 mg/kg, iv; type: ADME, organism-based, C57BL6; settings: in vivo, read-out: Vdss
[13] = test system: Mus musculus; test: Inhibition of SCD activity in high sucrose/fat free diet fed C57BL/6 mouse assessed as reduction in conversion of [14C]stearic acid to [14C]oleic acid at 100 mg/kg, po; type: functional; settings: C57BL6
[14] = Half life in Beagle dog at 2 mg/kg, po or 0.5 mg/kg, iv; type: ADME, organism-based, Canis lupus familiaris; settings: in vivo
[15] = test system: Mus musculus; test: Inhibition of SCD activity in po dosed high sucrose/fat free diet fed C57BL/6 mouse assessed as reduction in conversion of [14C]stearic acid to [14C]oleic acid; type: functional, organism-based; settings: C57BL6
[16] = Drug level in high sucrose/fat free diet fed C57BL/6 mouse liver at 100 mg/kg, po after 3 hrs post dose; type: ADME, organism-based, C57BL6; design: dose 100 mg/kg, route oral; settings: read-out: Drug uptake
[17] = Oral bioavailability in Beagle dog at 2 mg/kg, po; type: ADME, organism-based, Canis lupus familiaris; settings: in vivo
[18] = biological target: T4, Acyl-CoA (8-3)-desaturase; test: Inhibition of Delta(5) fatty acid desaturase in freshly isolated rat hepatocytes; type: cell-based, Hepatocyte
[19] = AUC in C57BL/6 mouse plasma at 10 mg/kg, po or 2 mg/kg, iv; type: ADME, organism-based, C57BL6
[20] = test system: Mus musculus; test: Inhibition of SCD activity in high sucrose/fat free diet fed C57BL/6 mouse assessed as reduction in conversion of [14C]stearic acid to [14C]oleic acid at 30 mg/kg, po; type: functional; settings: C57BL6
[21] = Drug level in high sucrose/fat free diet fed C57BL/6 mouse plasma at 100 mg/kg, po after 3 hrs post dose; type: ADME, organism-based, C57BL6; design: dose 100 mg/kg, route oral
[22] = AUC in Beagle dog plasma at 2 mg/kg, po or 0.5 mg/kg, iv; type: ADME, organism-based, Canis lupus familiaris
[23] = Drug level in high sucrose/fat free diet fed C57BL/6 mouse liver at 30 mg/kg, po after 3 hrs post dose; type: ADME, organism-based, C57BL6; design: dose 30 mg/kg, route oral; settings: read-out: Drug uptake

T4 sequence (Q920R3 whole entry): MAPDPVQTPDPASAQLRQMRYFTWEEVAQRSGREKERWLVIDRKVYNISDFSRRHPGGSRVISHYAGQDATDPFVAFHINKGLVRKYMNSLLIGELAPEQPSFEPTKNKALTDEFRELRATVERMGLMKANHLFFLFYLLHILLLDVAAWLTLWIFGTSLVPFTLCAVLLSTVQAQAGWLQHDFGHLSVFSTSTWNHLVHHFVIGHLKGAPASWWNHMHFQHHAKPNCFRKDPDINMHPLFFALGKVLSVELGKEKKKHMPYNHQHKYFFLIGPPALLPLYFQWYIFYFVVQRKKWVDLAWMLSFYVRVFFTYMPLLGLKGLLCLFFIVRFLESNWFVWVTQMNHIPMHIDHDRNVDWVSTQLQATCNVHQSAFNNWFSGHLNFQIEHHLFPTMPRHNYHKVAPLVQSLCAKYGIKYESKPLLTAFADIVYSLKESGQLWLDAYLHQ
Sequence of Acyl-CoA (8-3)-desaturase (Homo sapiens, UniProt O60427) (O60427 whole entry): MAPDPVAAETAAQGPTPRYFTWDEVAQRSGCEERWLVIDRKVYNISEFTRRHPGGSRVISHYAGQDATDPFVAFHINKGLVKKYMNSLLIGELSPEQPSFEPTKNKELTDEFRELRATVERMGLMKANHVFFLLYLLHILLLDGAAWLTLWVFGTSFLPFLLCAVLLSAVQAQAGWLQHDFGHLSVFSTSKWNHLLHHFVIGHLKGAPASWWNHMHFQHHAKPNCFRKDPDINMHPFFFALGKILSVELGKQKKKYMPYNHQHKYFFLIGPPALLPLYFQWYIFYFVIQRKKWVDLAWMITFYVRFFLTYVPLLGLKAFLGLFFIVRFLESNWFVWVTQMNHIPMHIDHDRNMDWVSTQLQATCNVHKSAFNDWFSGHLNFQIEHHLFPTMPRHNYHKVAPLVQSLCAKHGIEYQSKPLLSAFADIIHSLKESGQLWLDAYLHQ

| SMILES | IC50 [1] | IC50 [2] | IC50 [3] | also measured |
| --- | --- | --- | --- | --- |
| CS(=O)(=O)c1ccc2nc(-c3ccc(-c4cccc(Cl)c4F)cc3)[nH]c2c1 | 95 nM | – | – | – |
| CS(=O)(=O)c1ccc2nc(-c3ccc(-c4cccnc4)cc3)[nH]c2c1 | 425 nM | – | – | – |
| CS(=O)(=O)c1ccc2nc(-c3ccc(-c4ccccn4)cc3)[nH]c2c1 | 1710 nM | > 20000 nM | 1760 nM | – |
| CCS(=O)(=O)c1ccc2nc(-c3ccc(-c4ccccc4F)cc3)[nH]c2c1 | 1250 nM | > 20000 nM | 1310 nM | – |
| CS(=O)(=O)c1ccn2cc(-c3ccc(-c4ccccc4)cc3)nc2c1 | 42 nM | > 20000 nM | 60 nM | – |
| CS(=O)(=O)c1ccc2nc(-c3ccc(-c4ccccc4F)nc3)[nH]c2c1 | 58 nM | > 20000 nM | 19 nM | – |
| CS(=O)(=O)c1ccc2nc(-c3ccc(-c4ccccc4Cl)cc3)[nH]c2c1 | 4490 nM | > 20000 nM | 255 nM | – |
| CS(=O)(=O)c1ccc2nc(-c3ccc(-c4ccccc4)cc3)cn2c1 | > 20000 nM | – | – | – |
| CS(=O)(=O)c1ccc2nc(-c3ccc(-c4ccccc4O)cc3)[nH]c2c1 | 336 nM | – | – | – |
| Cc1cccc(-c2ccc(-c3nc4ccc(S(C)(=O)=O)cc4[nH]3)cc2)c1 | 319 nM | – | – | – |
| CS(=O)(=O)c1ccc2nc(-c3ccc(-c4cccc(O)c4)cc3)[nH]c2c1 | 396 nM | > 20000 nM | 342 nM | – |
| CS(=O)(=O)c1ccc2nc(-c3ccc(-c4ccccc4F)cc3)[nH]c2c1 | 65 nM | > 20000 nM | 27 nM | IC50 [4]: 1320 nM; IC50 [5]: > 50000 nM; half-life [6]: 35.5 h; concentration at 3 h [7]: 6.5 µM; clearance [8]: 20 mL/min/kg; bioavailability [9]: 39%; Vd [10]: 2 L/kg; clearance [11]: 26 mL/min/kg; Vd [12]: 2.9 L/kg; inhibition in vivo at 100 mg/kg [13]: 78%; half-life [14]: 1.1 h; inhibition [15]: Dose-dependent effect; concentration at 3 h [16]: 31.9 µM; bioavailability [17]: 70%; IC50 [18]: 5170 nM; AUC [19]: 8 µM·h; inhibition in vivo at 30 mg/kg [20]: 36%; concentration at 3 h [21]: 13.2 µM; AUC [22]: 2.4 µM·h; concentration at 3 h [23]: 10.1 µM |
| Cn1c(-c2ccc(-c3ccccc3F)nc2)nc2ccc(S(C)(=O)=O)cc21 | > 20000 nM | – | – | – |
| NS(=O)(=O)c1ccc2nc(-c3ccc(-c4ccccc4F)cc3)[nH]c2c1 | 343 nM | > 20000 nM | 74 nM | – |
| Cc1ccccc1-c1ccc(-c2nc3ccc(S(C)(=O)=O)cc3[nH]2)cc1 | 3860 nM | – | – | – |
| CS(=O)(=O)c1ccc2nc(-c3ccc(-c4ccc(O)cc4)cc3)[nH]c2c1 | 304 nM | > 20000 nM | 2330 nM | – |
| CS(=O)(=O)c1ccc2nc(-c3ccc(-c4ccc(F)cc4)cc3)[nH]c2c1 | 25 nM | – | – | – |
| Cn1c(-c2ccc(-c3ccccc3F)nc2)nc2cc(S(C)(=O)=O)ccc21 | 2490 nM | – | – | – |
| CN(C)S(=O)(=O)c1ccc2nc(-c3ccc(-c4ccccc4F)cc3)[nH]c2c1 | 528 nM | – | – | – |
| CS(=O)(=O)c1ccc2nc(-c3ccc(Br)cc3)[nH]c2c1 | > 20000 nM | – | – | – |
| Cc1ccc(-c2ccc(-c3nc4ccc(S(C)(=O)=O)cc4[nH]3)cc2)cc1 | > 20000 nM | – | – | – |

| SMILES | IC50 [1] | IC50 [2] | IC50 [3] | also measured |
| --- | --- | --- | --- | --- |
| CS(=O)(=O)c1ccc2nc(-c3ccc(-c4ccsc4)cc3)[nH]c2c1 | 104 nM | – | – | – |
| CS(=O)(=O)c1cnc2nc(-c3ccc(-c4ccccc4F)cc3)[nH]c2c1 | 156 nM | > 20000 nM | – | – |
| CS(=O)(=O)c1ccc2nc(-c3ccc(-c4cc(Cl)ccc4F)cc3)[nH]c2c1 | 278 nM | – | – | – |
| O=S(=O)(c1ccc2nc(-c3ccc(-c4ccccc4F)cc3)[nH]c2c1)C1CC1 | 401 nM | – | – | – |
| CS(=O)(=O)c1ccc2nc(-c3ccc(-c4cccs4)cc3)[nH]c2c1 | 97 nM | > 20000 nM | – | – |
| CS(=O)(=O)c1ccc2nc(-c3ccc(-c4cccc(Cl)c4)cc3)[nH]c2c1 | 148 nM | > 10000 nM | 15 nM | – |
| CS(=O)(=O)c1ccc2nc(-c3ccc(-c4ccc(-c5ccccc5)s4)cc3)[nH]c2c1 | > 20000 nM | – | – | – |
| N#Cc1ccc2nc(-c3ccc(-c4ccccc4F)cc3)[nH]c2c1 | > 20000 nM | > 20000 nM | > 20000 nM | – |
| Fc1ccccc1-c1ccc(-c2nc3ccccc3[nH]2)cc1 | > 20000 nM | – | – | – |
| CS(=O)(=O)c1ccc2nc(-c3ccc(-c4ccc(Cl)cc4)cc3)[nH]c2c1 | > 20000 nM | – | – | – |
| CSc1ccc2nc(-c3ccc(-c4ccccc4F)cc3)[nH]c2c1 | 697 nM | – | – | – |
| CS(=O)(=O)c1ccc2nc(-c3ccc(-c4ccccc4)cc3)sc2c1 | > 20000 nM | – | – | – |
| C[S+]([O-])c1ccc2nc(-c3ccc(-c4ccccc4F)cc3)[nH]c2c1 (stereo not drawn) | 472 nM | > 20000 nM | 96 nM | – |
| CC(C)(C)c1ccc2nc(-c3ccc(-c4ccccc4F)cc3)[nH]c2c1 | 175 nM | > 20000 nM | 731 nM | – |
| CS(=O)(=O)c1ccc2nc(-c3ccc(-c4cccc(F)c4)cc3)[nH]c2c1 | 21 nM | > 20000 nM | 30 nM | – |
| CS(=O)(=O)c1ccc2nc(-c3ccc(-c4ccccc4F)cn3)[nH]c2c1 | 227 nM | – | – | – |
| CS(=O)(=O)c1ccc2nc(-c3ccc(-c4ccoc4)cc3)[nH]c2c1 | 395 nM | > 20000 nM | 1700 nM | – |
| Cc1ccsc1-c1ccc(-c2nc3ccc(S(C)(=O)=O)cc3[nH]2)cc1 | 472 nM | – | – | – |
| CS(=O)(=O)c1ccc2nc(-c3cnc(-c4ccccc4)nc3)[nH]c2c1 | 489 nM | – | – | – |
| CS(=O)(=O)c1ccc2nc(-c3ccc(-c4ccccc4)cc3)[nH]c2c1 | 20 nM | > 10000 nM | 24 nM | – |
| CS(=O)(=O)c1ccc2nc(-c3ccc(-c4ccncc4)cc3)[nH]c2c1 | 2470 nM | > 20000 nM | 4250 nM | – |

Reference: ChEMBL document CHEMBL1268980, “2-Aryl benzimidazoles: human SCD1-specific stearoyl coenzyme-A desaturase inhibitors” (Bioorg Med Chem Lett, 2010)
